Test results: patent US8557795B2, “Composition containing Chamaecyparis obtusa polysaccharides to be externally applied to the skin” (Amorepacific Corporation, priority 2009, dated 2013)

How the values were obtained:
[1] = tested on: C57BL/6 mouse melanocytes (Mel-Ab cells); test: Melanin production inhibitory effect using mouse melanocytes; type: cell-based; details: 72 h, 3 days
Experimental: Mouse melanocytes were used to examine the melanin production inhibitory effect of the Chamaecyparis obtusa polysaccharide of the present invention. First, C57BL/6 mouse melanocytes (Mel-Ab cells) (Dooley, T. P. et al, Skin pharmacol, 7, pp 188-200) were cultured in DMEM (Dulbeccos modified Eagles media), containing 10% fetal bovine serum, 100 nM 2-O-tetradecanoyphorbol-13-acetate and 1 nM cholera toxin, in conditions of 37° C. and 5% CO2. The cultured Mel-Ab cells were detached with 0.25% trypsin-EDTA and cultured in a 24-well culture plate at a concentration of 10^5 cells/well. Then, from 2 days of culture, each of 10 ppm, 50 ppm and 100 ppm of the Chamaecyparis obtusa polysaccharide was continuously added thereto and cultured for 3 days. Herein, arbutin was used as a positive control. Then, the media were removed, and the cells were washed with PBS and lysed with 1N sodium hydroxide. The lysed cells were measured for absorbance at 400 nm, and based on the measured absorbance, the inhibition (%) of melanin production was calculated according to the following equation 2. Inhibition (%) of melanin production=100−(absorbance of each test material/absorbance of control×100) [Equation 2]

human keratinocytes = test: Induction of differentiation of human keratinocytes (cornified envelop amount); type: cell-based; details: Ca^2+ 1.2 mM (positive control); relative to 100 for low calcium (0.03 mM) control
Experimental: The effect of the Chamaecyparis obtusa polysaccharide of the present invention on the promotion of cell differentiation was examined by measuring the amount of CE (cornified envelop) produced during differentiation of keratinocytes and a human keratinocyte cell line (HaCaT).
Primarily cultured human keratinocytes were placed in a culture flask and allowed to adhere to the bottom of the flask, and then calcium and the Chamaecyparis obtusa polysaccharide were added to the culture media at varying concentrations. The cells were cultured for 5 days to a confluency of about 70-80%. The cultured cells were harvested and washed with PBS (phosphate buffered saline), and then 1 ml of 10 mM Tris-HCl buffer (pH 7.4), containing 2% SDS (sodium dodecyl sulfate) and 20 mM DTT (dithiothreitol), was added to the cells. The cell solution was sonicated, boiled and centrifuged, and the resulting precipitate was suspended in 1 ml of PBS and measured for absorbance at 340 nm. Meanwhile, a portion of the solution after the sonication was taken and measured for its protein content, and the measured value was used as a standard for evaluating the degree of cell differentiation. […] Each of the measurement values was calculated relative to 100 for the negative control (low calcium concentration), and the results of the calculation are shown in Table 6 below.

transglutaminase = test: Expression of transglutaminase in human keratinocytes; type: cell-based; details: Ca^2+ 1.2 mM (positive control); relative to 100 for low calcium (0.03 mM) control
Experimental: Human skin cells were placed in a 96-well plate at a concentration of 5×10^4 cells/well and attached to the plate for 24 hours. The attached skin cells were treated with the test material, and after 2 days, the medium was removed, and the cells were stored in a refrigerator at […]. The cells were frozen and thawed twice, disrupted and treated with acetone:ethanol (1:1, v/v), stored at −20° C. The treated cells were left to stand at 4° C. for 30 minutes to immobilize the cells. Then, the cells were left to stand at room temperature to evaporate the organic solvent and were blocked with 1% bovine serum albumin. The blocked cells were treated with transglutaminase antibody (primary antibody) and HRP anti-mouse antibody (secondary antibody), and the color development of the cells was carried out by the addition of OPD (o-phenyldiamine). The expression level of transglutaminase in the cells was measured by measuring the absorbance at 490 nm, and the correction was carried out by measuring the background at 630 nm. A low calcium (0.03 mM)-treated group and a high calcium (1.2 mM)-treated group were used as a negative control group and a positive control group, respectively. Each of the measurement values was calculated relative to 100 for the negative control (low calcium concentration), and the results of the calculation are shown in Table 7 below.

human skin = test: Whitening effect on UVB-darkened human skin (colorimeter); type: in vivo; details: UVB-darkened upper arm; 10 weeks of application; solvent control 0.51 ± 0.13
Experimental: In order to examine the whitening effect of the Chamaecyparis obtusa polysaccharide of the present invention on the human skin, the following test was carried out. First, on 12 healthy men as subjects, a 1.5-cm perforated opaque tape was attached to the upper arm portion of the subjects, and then the attached portion was radiated with UVB at a dose about 1.5-2 times the minimal erythema dose of each subject to induce skin darkening.
The color of the skin was measured with a colorimeter CR2002 (Japan, Minolta). Then, the difference (ΔL*) in skin color between the time point of initiation of application and the time point of completion of application (after 10 weeks) of each test material was calculated according to the following equation 3, and the results of the calculation are shown in Table 5 below.
Meanwhile, the skin whitening effect is evaluated by measuring the ΔL* value between the sample-applied portion and the control portion. […] Difference (ΔL*) skin color=L*value at the time of completion of application−L*value at the time of initiation of application [Formula 3]

[2] = tested on: TPA-induced mouse ear inflammation; test: TPA-induced mouse ear inflammation model; type: in vivo, ICR mice; details: 24 hours after TPA, polysaccharide 0.5% in 80% ethanol, indomethacin 0.5 mg/ear
Experimental: The tetradecanoyl phorbol acetate (TPA)-induced mouse ear inflammation model is an experimental method which is widely used to test the mechanism of action of inflammatory responses and the effect of inhibitors (De Young L M et al., Agents and Actions, 26; 335-341 (1989)). In order to confirm the inflammation inhibitory effect of the Chamaecyparis obtusa polysaccharide, 8-week-old male ICR mice (8 animals per group) were prepared. The test group was treated with TPA and applied with a solution of the Chamaecyparis obtusa polysaccharide dispersed in a 80% ethanol aqueous solution, the untreated group was applied with a 80% ethanol aqueous solution alone without treatment with TPA, the negative control group was treated with TPA and applied with a 80% ethanol aqueous solution alone, and the positive control group was treated with TPA and applied with 0.5 mg of indomethacine (Sigma, USA) in place of the Chamaecyparis obtusa polysaccharide. […] The mice of the untreated group, the negative control group and the positive control group were also treated as described above. At 24 hours after application of TPA, the mice were euthanized by cervical dislocation, and the left ear was sampled in a given area, and the weight thereof was measured. […] The inhibition (%) is calculated according to the following equation 4. […]

[3] = tested on: MMP-1 (matrix metalloproteinase I); test: Inhibition of UV-B-induced MMP-1 biosynthesis in human normal fibroblasts (ELISA); type: cell-based; details: irradiated with UV-B 40 mJ/cm^2; 10 μM; 2 days; non-irradiated control 100, UV alone 152
Experimental: Human normal fibroblasts were cultured in a 12-well culture plate at a concentration of 10^5 cells/well, and then irradiated with 40 mJ/cm^2 of UV-B, after which the medium was replaced with a medium containing each of 1 ppm, 10 ppm and 50 ppm of the Chamaecyparis obtusa polysaccharide obtained in Preparation Example 1. At 2 days of culture, the cells were harvested, and the amount of MMP-1 (matrix metalloproteinase I) produced in the cells was measured by an ELISA assay. As a positive control, retinoic acid (RA, Sigma, USA) was used. Each of the measurement values was calculated relative to […] for a control containing no Chamaecyparis obtusa polysaccharide and which was not irradiated with UV-B. The results of the calculation are shown in Table 2 below.

type I procollagen = test: Type I procollagen assay (ELISA) in human normal fibroblasts; type: cell-based; details: 10 ng/Ml; positive control set to 100
Experimental: Human normal fibroblasts were cultured in a 12-well culture plate at a concentration of 10^5 cells/well, and then the medium was replaced with each of media containing 1 ppm, 10 ppm and 50 ppm of the Chamaecyparis obtusa polysaccharide obtained in Preparation Example 1. As a positive control, TGF-β (Human Transforming Growth Factor-β1, Roche Co.) was used. At 3 days of culture, the cells were harvested, and the amount of type I procollagen produced in the cells was measured by an ELISA assay. Each of the measurement values was calculated relative to 0 for a control containing no Chamaecyparis obtusa polysaccharide and 100 for the positive control, and the results of the calculation are shown in Table 1 below.

Work on OC[C@H]1O[C@@H](Oc2ccc(O)cc2)[C@H](O)[C@@H](O)[C@@H]1O [Arbutin, arbutin] yielded an inhibition at 100 ppm [1] of 52%.

In the case of [Ca+2] [Ca^2+, calcium], the “Differentiation (%) of keratinocytes” value (human keratinocytes) is reported as 215% and the “Expression (%) of transglutaminase” value (transglutaminase) is reported as 138%.

For Oc1ccc(O)cc1 [Hydroquinone, hydroquinone], the “Difference (ΔL*) in skin color” value (human skin) was 1.89 ± 0.15.

For COc1ccc2c(c1)c(CC(=O)O)c(C)n2C(=O)c1ccc(Cl)cc1 [Indomethacin, indomethacine], the “Inhibition (%) (mean)” value [2] was 92% and the “Ear weight (mean ± SD)” value ([2]; untreated 6.64 ± 0.65, TPA alone 13.21 ± 2.49) was 7.20 ± 0.57.

With CC1=C(/C=C/C(C)=C/C=C/C(C)=C/C(=O)O)C(C)(C)CCC1 [RA, retinoic acid] the “MMP-1 biosynthesis (%)” value [3] was 45%.

In the case of “TGF-β: Human Transforming Growth Factor-β1, Roche Co.; positive control”, the “Type I procollagen biosynthesis (%)” value (type I procollagen) is reported as 100%.
